Assay results published in patent US12377166B2, “Iron oxide nanoparticle for targeted chemo-immunotherapy” (University of Washington, priority 2021, dated 2025).

Assays:
4T1 cells [1] = test: Alamar Blue cell viability assay; format: cell-based, murine; settings: 72 h incubation
Method: Alamar Blue cell viability assay. Cells were seeded in a 96-well plate and incubated overnight. The following day, the medium was replaced with medium containing various agents. The cells were then incubated for 72 h. Cell viability was assessed using the Alamar Blue assay. Briefly, the medium was replaced with cell culture medium containing the reagent and allowed to incubate for 2 h. Following the incubation, a microplate reader (SpectraMax i3 multimode microplate reader, Molecular Devices) was used to determine the fluorescence intensity of the dye (550ex/590em). The fluorescence intensity from NP or free drug treated cells was compared to those from untreated control cells to determine percent viability. Each condition was triplicated.

IL-12 [2] = test: IL-12 production by BMDCs (ELISA); format: cell-based, BALB/c mice; settings: 10 μg/mL Poly IC equivalent, 24 h
Method: IL-12 production by ELISA assay. All conditions used were same as those for viability assay. Twenty-four hours after addition of agents into cell medium, supernatants were collected and IL-12 levels in medium were assessed by an ELISA assay kit following the manufacturer's protocol. Each condition was triplicated.

IL-12 [3] = test: Serum/plasma IL-12 after I.V. injection (ELISA); format: in vivo, mice; settings: for change of plasma IL-12 level: I.V., DOX 5 mg/kg, Poly IC 18 mg/kg, or NP (DOX 10 mg/kg, Poly IC 18 mg/kg)
Method: Six-week-old mice were administered with IONP-DOX-Poly IC-EBP-Cy5 through I.V. injection (dosage: 10 mg/kg DOX or equivalent). At 1, 2, 4, 8, 24 and 72 h post-injection, blood (5-25 μL) was collected from tail vein. The total amount of blood withdrawn from each mouse never exceeded one percent of the total body weight of the animal during the experiment. Whole blood was diluted with PBS and spun using a benchtop centrifuge for 2 min at 5000 g to separate the plasma. The diluted plasma was added to a 96-well black plate. The plate was scanned on a SpectraMax i3 plate reader (fluorescence mode) to measure Cy5 (ex, 646 nm; em, 676 nm) and DOX (ex, 500 nm; em, 600 nm) fluorescence signals. Three mice were used for each group.
The same conditions in pharmacokinetics study were used here except that blood was collected before agent administration and 2, 6.5 and 24 h after administration. IL-12 in plasma was assessed using an ELISA kit following the manufacturer's instruction and quantified with a SpectraMax i3 plate reader.

[4] = system: T cells (CD8, CD25, CD69); test: Antigen-specific T cell response by flow cytometry in 4T1 tumor-bearing mice; format: in vivo, BALB/c mice; settings: three days after treatment
Method: Twelve 6-week-old female BALB/c mice were used. 4T1 cells (10^5 cells per mouse) were inoculated subcutaneously into #9 mammary glands. The tumors were allowed to grow into palpable masses. Ten days after tumor inoculation, the 12 mice were separated into 4 treatment groups. Four treatments, including IONP-DOX-EBP-Poly IC (10 mg/kg DOX and Poly IC), IONP-DOX-EBP (10 mg/kg DOX), free Poly IC (10 mg/kg Poly IC) and PBS, were administered intravenously into four groups of mice bearing tumors (200 μL per mouse), respectively. Three days after administration, mice were euthanized, and tumors and spleens were harvested.
Harvested tumors and spleens were then sectioned, squeezed through 70 μm cell strainers and washed with PBS w/1% v/v ratio of FBS to obtain single cell suspensions. Cells were spun down with a centrifuge at 1500 rpm for 4 min and resuspended in 750 μL PBS w/1% v/v FBS. Anti-CD8-PE, anti-CD25-APC, and anti-CD69-FITC (Biolegend Inc.) solutions (3 μL each) were then mixed with 241 μL of PBS w/1% v/v FBS (total antibody solution volume for each single cell suspension was 250 μL). The cell/antibody suspension was then incubated in dark at room temperature for 30 mins. After incubation, 11 mL of PBS w/1% v/v FBS was added to all cell/antibody suspensions followed by centrifuging at 1500 rpm for 4 mins. Finally, all cell pellets were resuspended in 500 μL PBS w/1% v/v FBS and analyzed by flow cytometry (FACSCanto II).

4T1-luc flank tumor = test: Tumor growth inhibition in 4T1-luc flank tumor model; format: in vivo; settings: for inhibition to tumor growth as compared to PBS-treated mice: three I.V. doses days 7, 10, 13, free DOX 5 mg/kg, NP DOX 10 mg/kg, Poly IC 18 mg/kg
Method: 6-Week-old female BALB/c mice were used. 4T1-luc cells were transfected to stably express luciferase so that bioluminescence imaging could be used to monitor tumor growth. 4T1-luc cells were trypsinized and suspended in PBS (10^7 cells/mL) and injected subcutaneously into the right flanks of mice (0.1 mL per mouse). Seven days after tumor inoculation, twenty-eight mice were randomly divided into 7 groups and each group was administered through intravenous injection with three doses of one of the following agents: PBS, IONPs, DOX, Poly IC, IONP-DOX-EBP, IONP-DOX-Poly IC, and IONP-DOX-Poly IC-EBP. […] For all NP agents, doses of DOX and Poly IC were 10 mg/kg and 18 mg/kg, respectively. Each mouse received an injection at day 7, 10 and 13 after tumor inoculation. The tumor size was measured by a caliper and the tumor volume was calculated by equation: V=width^2×length/2. The tumor size was measured every 3 days starting at day 4 after tumor cell inoculation. The body weight was also monitored after first agent administration.

4T1 cells [5] = test: Cell uptake assay by flow cytometry; format: cell-based, murine; settings: 2 h
Method: Cell uptake assay by flow cytometry. 4T1 cells were incubated with different agents for 2 h (10 μg/mL DOX or DOX equivalent NPs) at either 37° C. or 4° C., followed by washing with cold PBS for 3 times. Cells were then trypsinized and resuspended in cold PBS and analyzed by flow cytometry (FACSCanto II, BD Biosciences). Each condition was triplicated.

[6] = system: bone marrow-derived dendritic cells (BMDCs); test: Confocal imaging of cellular uptake into BMDCs; format: cell-based, BALB/c mice; settings: 10 μg/mL Poly IC equivalent, 1 h, 37 °C
Method: BMDCs preparation. BMDC were generated from female BALB/c mice of 6-8 weeks old. The isolation of bone marrow cells was carried out following the method described in Madaan, A., et al., Journal of Biological Methods (2014) 1 (1). Cells were resuspended in RPMI-1640 supplemented with 10% FBS, 20 ng/mL recombinant murine GM-CSF (Shenandoah Biotechnology, Inc, Warwick, PA), and antibiotics (Pen Strep). Cells were allowed to differentiate for 7 d with one addition of fresh media at day 3. At day 7, cells were aspirated and counted for assays. Medium containing 10 ng/mL GM-CSF was used in assays.
Confocal microscopic imaging of cellular uptake. Cells were seeded onto a chamber slide (Nunc™ Lab-Tek™ II Chamber Slide™ System, Thermo Fisher Scientific Rockford, IL) with a density of 50,000 per well and incubated overnight. DOX, IONP-DOX-EBP-Cy5, or IONP-DOX-Poly IC-EBP-Cy5 was added into cells at a concentration of 10 μg/mL Poly IC-equivalency and incubated for 1 h. Cells were then washed and imaged with a Leica SP8X confocal laser scanning microscope.

[7] = system: 4T1-luc tumors and organs; test: DOX uptake in organs and tumors by confocal imaging; format: in vivo, BALB/c mice; settings: 10 mg/kg DOX, single I.V., 48 h post-injection
Method: (§1) One week after inoculated with 4T1-luc cells, mice were injected with various agents intravenously. Forty-eight hours later, mice were euthanized and organs (heart, kidney, liver, lung, and spleen) and tumors were harvested and pre-served in 10% formalin for 48 h. Formalin-fixed tissue samples were first transferred from PBS to 70% ethanol and maintained for 2 hours, and then were transferred into 95% ethanol/5% methanol and maintained for an additional 2 hours. The samples were transferred in absolute ethanol and maintained for 1 hour, and then transferred again into 3 consecutive absolute xylene solutions and maintained in each for 1 hour. The samples were dehydrated and then placed in 2 consecutive melted paraffin baths and maintained in each for 2 hours. The tissue samples were then embedded in paraffin blocks and sectioned at 10 um thickness and loaded onto microscope slides. The loaded slides were heated to remove excess paraffin and adhere the samples to the slides. The samples were then deparaffinized by a series of xylene, ethanol and PBS baths.
The deparaffinized tissue samples were stained with DAPI and WGA-AF647 and mounted with Prolong Gold mounting medium. Samples were imaged with a Leica SP8X confocal microscope.

[8] = H&E histopathology of organs; format: in vivo, BALB/c mice; settings: 10 mg/kg DOX equivalent, single I.V., 48 h
Method: as §1
The deparaffinized samples were stained with haemotoxylin and eosin, and mounted with Prolong Gold mounting medium. Microscopic images of tissues were acquired using a Nikon ECLIPSE TE 2000-S microscope.

4T1-luc orthotopic tumor = test: Tumor growth, survival and metastasis in 4T1-luc primary (orthotopic) tumor model; format: in vivo, BALB/c mice
Method: 6-Week-old female BALB/c mice were used in this study. 4T1-luc cells were injected subcutaneously into the #9 mammary glands (10^6 cells in 0.05 mL PBS per mouse). Seven days after tumor inoculation, eighteen mice were randomly divided into 3 groups and each group was administered through intravenous injection with five doses of one of the following agents: PBS, DOX, and IONP-DOX-Poly IC-EBP. For free DOX, dose was 5 mg/kg per injection. For IONP-DOX-Poly IC-EBP, doses of DOX and Poly IC were 10 mg/kg and 18 mg/kg, respectively. Each mouse received an injection at day 7, 10, 13, 16 and 19 after tumor inoculation. The tumor size and body weight were monitored after first administration. Metastasis was monitored by IVIS imaging starting at day 22 after tumor inoculation. Mice were imaged at day 22, 25, 28, 31, 34, 37, 41, 45 and 50. Mice were euthanized following the approved animal protocol.

Compound | toxicity to cells (viability) (4T1 cells [1]) | production of IL-12 in cellular supernatants (IL-12 [2]) | time of peak IL-12 level post injection (IL-12 [3]; I.V. injection) [h] | change of plasma IL-12 level (IL-12 [3]) | CD8 cells in tumor [4] [%] | CD25 cells in tumor [4] [%] | CD69 cells in tumor [4] [%] | inhibition to tumor growth as compared to PBS-treated mice (4T1-luc flank tumor) | mean fluorescence intensity (MFI) of DOX, cellular uptake (4T1 cells [5]; 10 μg/mL DOX equivalent) | DOX taken up by cells at 4° C. (4T1 cells [5]; 4 °C vs 37 °C) [%] | IC50 (cell viability) (4T1 cells [1]; DOX concentration) | uptake and localisation of DOX in BMDCs [6] | DOX signal in liver [7] | DOX signal in tumors [7] | heart damage (H&E) [8] | pathological changes in organs other than heart (H&E) [8] | time to mouse death from severe toxicity (4T1-luc flank tumor; free DOX 10 mg/kg I.V.) | median survival time (4T1-luc orthotopic tumor; five I.V. injections 3 days apart, free DOX 5 mg/kg, NP DOX 10 mg/kg, Poly IC 18 mg/kg) [days] | metastasis delayed to day after tumor inoculation (4T1-luc orthotopic tumor; five I.V. injections, IVIS bioluminescence) [days]
polyinosinic:polycytidylic acid [Poly IC] | non-toxic to cells | equivalent production of IL 12 | 1.5 | rapid elevation of the IL-12 level | 8.63 | 7.91 | 3.57 | small | – | – | – | – | – | – | – | – | – | – | –
COc1cccc2c1C(=O)c1c(O)c3c(c(O)c1C2=O)C[C@@](O)(C(=O)CO)C[C@@H]3O[C@H]1C[C@H](N)[C@H](O)[C@H](C)O1 [DOX, doxorubicin] | – | – | – | did not increase the IL-12 level | – | – | – | small | 451 | 10 | about 0.36 μg/mL | can enter BMDCs | strong and evenly distributed fluorescence signal | No observable DOX signal | severe heart damage | No pathological changes | less than 2 weeks | 32.5 | 31
